According to the NIST ThermoML archive (doi:10.1021/je0341763):
± gives the expanded uncertainty stated by the source.

What was measured:
[1] = 298.15 K; for surface tension liquid-gas: Pendant drop shape; for mass density: 101.33 kPa, Liquid
[2] = xn = mol fraction of the nth substance listed; conditions: 298.15 K, Pendant drop shape

Cc1ccccc1C [1,2-dimethylbenzene]
surface tension liquid-gas [1]: 29.35 ± 0.3 mN/m | mass density [1]: 875.92 ± 0.42 kg/m3

Cc1ccccc1C [1,2-dimethylbenzene] + CC(C)=O
surface tension liquid-gas ([2]; x2 = 0.0995): 29.13 ± 0.3 mN/m | surface tension liquid-gas ([2]; x2 = 0.2016): 28.84 ± 0.3 mN/m | surface tension liquid-gas ([2]; x2 = 0.3047): 28.45 ± 0.3 mN/m | surface tension liquid-gas ([2]; x2 = 0.403): 28.07 ± 0.29 mN/m | surface tension liquid-gas ([2]; x2 = 0.4999): 27.58 ± 0.29 mN/m | surface tension liquid-gas ([2]; x2 = 0.6017): 26.99 ± 0.29 mN/m | surface tension liquid-gas ([2]; x2 = 0.6991): 26.34 ± 0.28 mN/m | surface tension liquid-gas ([2]; x2 = 0.7998): 25.65 ± 0.28 mN/m | surface tension liquid-gas ([2]; x2 = 0.9002): 24.86 ± 0.27 mN/m

Cc1cccc(C)c1 [1,3-dimethylbenzene]
surface tension liquid-gas [1]: 28.36 ± 0.3 mN/m | mass density [1]: 859.78 ± 0.49 kg/m3

Cc1cccc(C)c1 [1,3-dimethylbenzene] + CC(C)=O
surface tension liquid-gas ([2]; x2 = 0.1027): 28.16 ± 0.3 mN/m | surface tension liquid-gas ([2]; x2 = 0.1996): 27.95 ± 0.3 mN/m | surface tension liquid-gas ([2]; x2 = 0.3049): 27.67 ± 0.29 mN/m | surface tension liquid-gas ([2]; x2 = 0.4029): 27.31 ± 0.29 mN/m | surface tension liquid-gas ([2]; x2 = 0.4993): 26.91 ± 0.29 mN/m | surface tension liquid-gas ([2]; x2 = 0.6024): 26.41 ± 0.28 mN/m | surface tension liquid-gas ([2]; x2 = 0.7002): 25.86 ± 0.28 mN/m | surface tension liquid-gas ([2]; x2 = 0.801): 25.27 ± 0.27 mN/m | surface tension liquid-gas ([2]; x2 = 0.9014): 24.66 ± 0.27 mN/m

Cc1cccc(C)c1 [1,3-dimethylbenzene] + CCC(C)=O
surface tension liquid-gas ([2]; x2 = 0.1044): 27.99 ± 0.3 mN/m | surface tension liquid-gas ([2]; x2 = 0.2015): 27.66 ± 0.3 mN/m | surface tension liquid-gas ([2]; x2 = 0.3028): 27.29 ± 0.29 mN/m | surface tension liquid-gas ([2]; x2 = 0.4011): 26.93 ± 0.29 mN/m | surface tension liquid-gas ([2]; x2 = 0.5013): 26.53 ± 0.28 mN/m | surface tension liquid-gas ([2]; x2 = 0.6009): 26.11 ± 0.28 mN/m | surface tension liquid-gas ([2]; x2 = 0.6999): 25.68 ± 0.28 mN/m | surface tension liquid-gas ([2]; x2 = 0.7999): 25.24 ± 0.27 mN/m | surface tension liquid-gas ([2]; x2 = 0.9): 24.76 ± 0.27 mN/m

Cc1ccc(C)cc1 [1,4-dimethylbenzene]
surface tension liquid-gas [1]: 27.89 ± 0.29 mN/m | mass density [1]: 856.85 ± 0.46 kg/m3

Cc1ccc(C)cc1 [1,4-dimethylbenzene] + CC(C)=O
surface tension liquid-gas ([2]; x2 = 0.1027): 27.69 ± 0.29 mN/m | surface tension liquid-gas ([2]; x2 = 0.2022): 27.41 ± 0.29 mN/m | surface tension liquid-gas ([2]; x2 = 0.3029): 27.11 ± 0.29 mN/m | surface tension liquid-gas ([2]; x2 = 0.3993): 26.78 ± 0.28 mN/m | surface tension liquid-gas ([2]; x2 = 0.5009): 26.41 ± 0.28 mN/m | surface tension liquid-gas ([2]; x2 = 0.6006): 25.98 ± 0.28 mN/m | surface tension liquid-gas ([2]; x2 = 0.7005): 25.51 ± 0.28 mN/m | surface tension liquid-gas ([2]; x2 = 0.8002): 25.03 ± 0.27 mN/m | surface tension liquid-gas ([2]; x2 = 0.9007): 24.51 ± 0.27 mN/m

CC(C)=O [acetone]
surface tension liquid-gas [1]: 24.01 ± 0.26 mN/m | mass density [1]: 784.39 ± 0.61 kg/m3

CCC(C)=O [butanone]
surface tension liquid-gas [1]: 24.28 ± 0.27 mN/m | mass density [1]: 799.62 ± 0.57 kg/m3

CCC(C)=O [butanone] + Cc1ccc(C)cc1
surface tension liquid-gas ([2]; x1 = 0.0999): 27.58 ± 0.29 mN/m | surface tension liquid-gas ([2]; x1 = 0.2007): 27.27 ± 0.29 mN/m | surface tension liquid-gas ([2]; x1 = 0.3001): 26.95 ± 0.29 mN/m | surface tension liquid-gas ([2]; x1 = 0.402): 26.62 ± 0.28 mN/m | surface tension liquid-gas ([2]; x1 = 0.5001): 26.28 ± 0.28 mN/m | surface tension liquid-gas ([2]; x1 = 0.6006): 25.91 ± 0.28 mN/m | surface tension liquid-gas ([2]; x1 = 0.7009): 25.51 ± 0.28 mN/m | surface tension liquid-gas ([2]; x1 = 0.8009): 25.12 ± 0.27 mN/m | surface tension liquid-gas ([2]; x1 = 0.8999): 24.71 ± 0.27 mN/m

CCC(C)=O [butanone] + Cc1ccccc1C
surface tension liquid-gas ([2]; x1 = 0.1001): 29 ± 0.3 mN/m | surface tension liquid-gas ([2]; x1 = 0.2028): 28.58 ± 0.3 mN/m | surface tension liquid-gas ([2]; x1 = 0.3001): 28.17 ± 0.3 mN/m | surface tension liquid-gas ([2]; x1 = 0.4017): 27.68 ± 0.29 mN/m | surface tension liquid-gas ([2]; x1 = 0.5006): 27.19 ± 0.29 mN/m | surface tension liquid-gas ([2]; x1 = 0.6018): 26.65 ± 0.28 mN/m | surface tension liquid-gas ([2]; x1 = 0.7012): 26.11 ± 0.28 mN/m | surface tension liquid-gas ([2]; x1 = 0.8006): 25.55 ± 0.28 mN/m | surface tension liquid-gas ([2]; x1 = 0.8994): 24.96 ± 0.27 mN/m
